From patent publication US8501804B2, “Bicyclic compound” (Takeda Pharmaceutical Company Limited, priority 2008, dated 2013)

What was measured:
[1] = molecular target: T1, human ACC2 (Nd) (Homo sapiens, UniProt O00763); test: ACC2 inhibitory activity (malachite green); format: biochemical; conditions: test compound 10 μM; for inhibition at 10 µM: read-out: ACC2 10 μM inhibitory rate (%)
T1 construct: His6 (from vector pFAST-BacHTa); made in house; host or cells: SF-9 insect cells, recombinant baculovirus BAC-ACC2 (Nd)
T1 sequence (O00763 117-2458 limits assumed): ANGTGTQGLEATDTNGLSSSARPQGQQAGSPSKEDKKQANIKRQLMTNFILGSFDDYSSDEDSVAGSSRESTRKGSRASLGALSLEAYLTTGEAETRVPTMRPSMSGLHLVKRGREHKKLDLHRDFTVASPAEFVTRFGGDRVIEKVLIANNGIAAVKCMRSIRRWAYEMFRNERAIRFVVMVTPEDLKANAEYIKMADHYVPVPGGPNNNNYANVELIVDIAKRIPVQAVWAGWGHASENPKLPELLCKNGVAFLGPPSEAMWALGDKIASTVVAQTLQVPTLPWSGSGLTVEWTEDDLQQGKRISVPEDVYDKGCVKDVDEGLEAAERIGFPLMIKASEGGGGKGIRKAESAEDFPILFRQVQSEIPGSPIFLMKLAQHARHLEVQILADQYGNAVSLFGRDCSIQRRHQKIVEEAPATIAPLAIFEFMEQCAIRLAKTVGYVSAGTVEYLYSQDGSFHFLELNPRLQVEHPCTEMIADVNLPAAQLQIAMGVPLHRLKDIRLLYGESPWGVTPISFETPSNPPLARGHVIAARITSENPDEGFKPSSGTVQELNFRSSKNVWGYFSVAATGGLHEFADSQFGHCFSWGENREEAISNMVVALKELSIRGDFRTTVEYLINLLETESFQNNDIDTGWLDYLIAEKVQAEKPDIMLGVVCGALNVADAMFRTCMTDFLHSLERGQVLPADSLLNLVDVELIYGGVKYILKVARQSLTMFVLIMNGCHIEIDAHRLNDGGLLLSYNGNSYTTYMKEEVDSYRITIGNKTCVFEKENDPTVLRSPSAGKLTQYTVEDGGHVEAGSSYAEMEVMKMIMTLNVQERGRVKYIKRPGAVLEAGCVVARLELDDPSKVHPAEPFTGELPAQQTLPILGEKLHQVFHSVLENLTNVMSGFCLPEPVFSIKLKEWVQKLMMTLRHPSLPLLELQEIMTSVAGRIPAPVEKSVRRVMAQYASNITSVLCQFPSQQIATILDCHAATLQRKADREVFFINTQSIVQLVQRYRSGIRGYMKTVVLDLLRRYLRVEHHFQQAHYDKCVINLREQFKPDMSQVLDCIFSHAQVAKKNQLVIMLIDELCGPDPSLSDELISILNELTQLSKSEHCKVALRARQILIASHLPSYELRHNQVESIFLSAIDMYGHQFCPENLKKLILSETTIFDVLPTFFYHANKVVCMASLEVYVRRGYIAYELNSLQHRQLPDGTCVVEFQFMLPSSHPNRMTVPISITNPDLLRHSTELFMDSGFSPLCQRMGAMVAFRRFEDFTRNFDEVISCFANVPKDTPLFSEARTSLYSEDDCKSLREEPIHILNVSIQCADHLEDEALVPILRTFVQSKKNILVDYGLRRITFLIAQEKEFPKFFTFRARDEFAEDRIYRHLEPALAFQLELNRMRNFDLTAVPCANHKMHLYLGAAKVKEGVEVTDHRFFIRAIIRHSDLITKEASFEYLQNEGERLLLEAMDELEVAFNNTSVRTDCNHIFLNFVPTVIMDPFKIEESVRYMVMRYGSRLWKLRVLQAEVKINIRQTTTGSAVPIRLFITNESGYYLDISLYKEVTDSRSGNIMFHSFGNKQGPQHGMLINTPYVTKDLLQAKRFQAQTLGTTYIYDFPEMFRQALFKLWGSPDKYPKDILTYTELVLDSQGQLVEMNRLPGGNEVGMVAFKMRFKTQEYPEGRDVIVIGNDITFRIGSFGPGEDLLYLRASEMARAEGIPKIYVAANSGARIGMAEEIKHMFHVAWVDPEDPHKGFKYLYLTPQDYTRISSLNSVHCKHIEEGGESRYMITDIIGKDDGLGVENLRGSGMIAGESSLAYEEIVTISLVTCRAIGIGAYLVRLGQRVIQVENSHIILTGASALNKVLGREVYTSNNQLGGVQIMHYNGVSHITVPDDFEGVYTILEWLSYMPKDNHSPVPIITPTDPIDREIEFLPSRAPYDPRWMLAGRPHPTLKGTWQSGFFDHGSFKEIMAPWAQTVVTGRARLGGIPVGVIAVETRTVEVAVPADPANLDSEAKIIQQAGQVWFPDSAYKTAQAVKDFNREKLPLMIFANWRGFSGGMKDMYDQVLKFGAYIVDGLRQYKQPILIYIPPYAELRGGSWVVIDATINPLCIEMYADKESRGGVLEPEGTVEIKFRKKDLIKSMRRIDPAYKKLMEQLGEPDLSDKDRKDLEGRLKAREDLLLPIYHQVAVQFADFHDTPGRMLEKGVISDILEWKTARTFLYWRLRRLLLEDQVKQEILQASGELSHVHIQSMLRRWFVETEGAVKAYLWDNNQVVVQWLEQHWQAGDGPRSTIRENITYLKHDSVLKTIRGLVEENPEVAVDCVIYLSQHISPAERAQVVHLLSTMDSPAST
Summary of the method: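 Enzyme: N-terminally truncated human ACC2 lacking the mitochondrial targeting sequence, His-tagged, expressed in baculovirus-infected Sf9 cells and Ni-NTA purified. Working dilution 6.4 μg/ml in 50 mM HEPES pH 7.5, 10 mM MgCl2, 10 mM tripotassium citrate, 2 mM DTT, 0.75 mg/ml fatty-acid-free BSA. Test compound in DMSO.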

[2] = molecular target: T2, human ACC1 (Homo sapiens, UniProt Q13085); test: ACC1 inhibitory activity (malachite green); format: biochemical; conditions: test compound 10 μM; for inhibition at 10 µM: read-out: ACC1 10 μM inhibitory rate (%)
T2 construct: His6 (from vector pFAST-BacHTc); made in house; host or cells: SF-9 insect cells, recombinant baculovirus BAC-ACC1
Summary of the method: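 His-tagged human ACC1 from baculovirus-infected Sf9 cells was Ni-NTA purified, diluted to 8 μg/ml, and preincubated with compound for 60 min at 30 °C in HEPES pH 7.5 buffer with MgCl2, citrate, DTT and BSA. Substrate solution (50 mM KHCO3, 200 μM ATP, 200 μM acetyl-CoA) was added for 20 min at 30 °C. Phosphate was read by malachite green at 620 nm against no-compound and no-acetyl-CoA controls.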

| SMILES | inhibition at 10 µM [1] | inhibition at 10 µM [2] | ACC2 10 μM inhibitory rate (%) [1] | ACC1 10 μM inhibitory rate (%) [2] |
| --- | --- | --- | --- | --- |
| CC(=O)NC(C)c1cc2cc(OCc3ccc(OCC4CC4)nc3F)ccc2o1 (stereo not shown) [Example 153, N-[1-(5-{[6-(cyclopropylmethoxy)-2-fluoropyridin-3-yl]methoxy}-1-benzofuran-2-yl)ethyl]acetamide] | 70% | 24% |  |  |
| CC(=O)NC(C)c1cc2cc(OCc3cnc(OCC4CC4)cc3F)ccc2o1 (stereo not shown) [Example 154, N-[1-(5-{[6-(cyclopropylmethoxy)-4-fluoropyridin-3-yl]methoxy}-1-benzofuran-2-yl)ethyl]acetamide] | 78% | 39% |  |  |
| CC(=O)NC(C)c1coc2cc(OCc3ccc(OCC4CC4)nc3F)ccc12 (stereo not shown) [Example 164, N-[1-(6-{[6-(cyclopropylmethoxy)-2-fluoropyridin-3-yl]methoxy}-1-benzofuran-3-yl)ethyl]acetamide] | 93% | 50% |  |  |
| CSCCOc1ccc(CCc2ccc3cc(C(C)NC(C)=O)oc3c2)cc1 (stereo not shown) [Example 169, N-{1-[6-(2-{4-[2-(methylsulfanyl)ethoxy]phenyl}ethyl)-1-benzofuran-2-yl]ethyl}acetamide] | 75% | 23% |  |  |
| CC(=O)NC(C)c1cc2ccc(CCc3ccc(OC4CCCC4)cc3)cc2o1 (stereo not shown) [Example 170, N-[1-(6-{2-[4-(cyclopentyloxy)phenyl]ethyl}-1-benzofuran-2-yl)ethyl]acetamide] | 84% | 30% |  |  |
| CCOc1ccc(COc2ccc3cc(C(C)NC(C)=O)oc3c2)cc1Br (stereo not shown) [Example 175, N-(1-{6-[(3-bromo-4-ethoxybenzyl)oxy]-1-benzofuran-2-yl}ethyl)acetamide] | 74% | 15% |  |  |

Continued, values first:

| inhibition at 10 µM [1] | inhibition at 10 µM [2] | ACC2 10 μM inhibitory rate (%) [1] | ACC1 10 μM inhibitory rate (%) [2] | SMILES |
| --- | --- | --- | --- | --- |
| 80% | 34% |  |  | CC(=O)NC(C)c1cc2ccc(CCc3ccc(OCCC4CC4)cc3)cc2o1 (stereo not shown) [Example 174, N-[1-(6-{2-[4-(2-cyclopropylethoxy)phenyl]ethyl}-1-benzofuran-2-yl)ethyl]acetamide] |
| 88% | 31% |  |  | CC(Nc1ccon1)c1cc2ccc(CCc3ccc(OCC4CC4)cc3)cc2o1 (stereo not shown) [Example 176, N-[1-(6-{2-[4-(cyclopropylmethoxy)phenyl]ethyl}-1-benzofuran-2-yl)ethyl]isoxazol-3-amine] |
|  |  | 77% | 37% | CCCCOc1ccc(CCc2ccc3cc(C(C)NC(C)=O)oc3c2)cc1 (stereo not shown) [Example 189 (retention time shorter)] |
| 79% | 29% |  |  | CCOc1ccc(CCc2ccc3cc(C(C)NC(C)=O)oc3c2)cc1 (stereo not shown) [Example 190 (retention time longer), N-(1-{6-[2-(4-ethoxyphenyl)ethyl]-1-benzofuran-2-yl}ethyl)acetamide] |
|  |  | 75% | 20% | CC(=O)NC(C)c1cc2ccc(CCc3ccc(OCC4CC4)cc3)cc2o1 (stereo not shown) [Example 191 (retention time shorter), N-[1-(6-{2-[4-(cyclopropylmethoxy)phenyl]ethyl}-1-benzofuran-2-yl)ethyl]acetamide] |
